Source: US20170296550A1, “ARYL SULTAM DERIVATIVES AS RORc MODULATORS” (Genentech, Inc., priority 2013, published 2017)

Molecular target: T1, RORc (Homo sapiens, UniProt P51449)
T1 construct: host or cells: E. coli
T1 sequence (P51449 269-508 limits assumed): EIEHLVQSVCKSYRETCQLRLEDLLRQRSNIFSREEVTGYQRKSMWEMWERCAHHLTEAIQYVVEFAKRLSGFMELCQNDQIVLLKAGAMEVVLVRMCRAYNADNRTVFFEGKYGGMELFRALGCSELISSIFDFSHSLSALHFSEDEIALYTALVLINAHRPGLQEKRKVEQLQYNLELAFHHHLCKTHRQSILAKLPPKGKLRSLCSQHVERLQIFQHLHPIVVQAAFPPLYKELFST
Test: In Vitro RORc Ligand Binding Assay (25-[3H]hydroxycholesterol radioligand, filter plate)
Details: RORc ligand binding domain 0.6 ug/mL; 6 nM 25-[3H]hydroxycholesterol; 3 h at 25° C.
Procedure: Example 68 In Vitro RORc Ligand Binding Assay
This assay was used to determine a compound's potency in inhibiting activity of RORc by determining, Kiapp, IC50, or percent inhibition values.
On day of the assay, 100 uL of 0.05% CHAPS (in deionized H2O) was added to all wells of the GFB Unifilter plate and allowed soak for 1 h. A wash buffer of 50 mM HEPES (pH 7.4), 150 mM NaCl, and 5 mM MgCl2 was prepared to wash the filter plate. To prepare an assay buffer, BSA was added to the wash buffer to reach 0.01% and DTT was added to reach 1 mM.
For IC50 mode, 10 mM compound stocks were serially diluted in DMSO with DMSO to give 20× required final concentration in DMSO (15 uL compound+30 uL DMSO). The 20× compound stocks were diluted in DMSO with Assay Buffer 4-fold to reach 5× the final test concentration in 25% DMSO (10 uL compound+30 uL Assay Buffer). Solutions were mixed by aspiration several times with a pipette set on 50 uL volume. For the assay, 10 uL of 5× compound stock solutions in 25% DMSO were added to the assay plate in duplicate.
For two point screening, 10 mM stock compound solutions were diluted in DMSO to obtain 200 uM (20× the high test concentration) and then diluted 10-fold further to reach 20 uM (20× the low test concentration). The 20× stocks were diluted 4-fold with Assay Buffer (10 uL compound+30 uL Assay Buffer) to reach 5× the test concentrations (50 uM and 5 uM) and 10 uL were added to two assay plates for the duplicate wells. With each concentration tested on 2 plates, each set of 80 compounds used 4 assay plates (1 uM and 10 uM, with n=2).
25-hydroxycholesterol (1 uM) was used to determine the level of NSB signal is prepared in DMSO as for compounds above, then diluted in Assay Buffer to give a final concentration of 5 uM. For 25-hydroxycholesterol in 25% DMSO/75% Assay Buffer; 10 uL per well was used for NSB samples. Wells for Total Binding and No Receptor sample determination contained 10 uL of 25% DMSO/75% Assay Buffer per well.
Radioligand (25-[^3H]hydroxycholesterol) Preparation
25-[^3H]hydroxycholesterol was dilute in Assay Buffer to obtain 15 nM and vortex to mix. Add 20 uL to all wells to reach 6 nM final in the assay.
Stock receptor solution was diluted in assay buffer to obtain 1.5 ug/mL in Assay Buffer. 20 uL was added to all wells. For No R samples, 20 uL Assay Buffer was substituted for receptor solution.
Assay plates were 96-well polypropylene V-bottom plates. 10 uL of 5× compound in 25% DMSO/75% Assay Buffer was added to Test wells. 10 uL of 25% DMSO/75% Assay Buffer was added to Total Binding or No Receptor wells. 10 uL of 5 uM 25-hydroxycholesterol in 25% DMSO/75% Assay Buffer was added to NSB wells. 20 uL of 15 nM 25-[^3H]hydroxycholesterol prepared in Assay Buffer was added to all wells. 20 uL of 1.5 ug/mL RORc receptor was added to wells (or […] Assay Buffer to No R wells). Following addition to the wells, the plates were incubated 3 h at 25° C.
Using a Packard Filtermate Harvester, the filter plate were washed 4 times following transfer of the incubated samples. Plates were dry-filtered completely (2 h at 50° C. or overnight at room temperature). 50 uL Microscint 0 was added to all wells and read on Topcount protocol Inverted.
Final concentrations were as follows: 50 mM HEPES buffer (pH 7.4); 150 mM NaCl; 1 mM DTT; 5 mM MgCl2; 0.01% BSA; 5% DMSO; 0.6 ug/mL RORc receptor; 6 nM 25-[^3H]hydroxycholesterol. For NSB wells, 1 uM 25-hydroxycholesterol was also present.

Point of comparison: `Cc1noc(C)c1C(=O)Nc1ccc(CN2[C@@H](C)CCC(c3ccccc3)S2(=O)=O)c(F)c1` (single isomer, unassigned) [Example 4], IC50 0.027 µM. Against it:
- Cc1nn(C)cc1NC(=O)c1ccc(CN2[C@@H](C)CCC(c3ccccc3)S2(=O)=O)cc1 (stereo partly drawn) [Example 20, N-(1,3-Dimethyl-1H-pyrazol-4-yl)-4-((3S)-3-methyl-1,1-dioxo-6-phenyl-[1,2]thiazinan-2-ylmethyl)-benzamide] — 78-fold higher, 2.11 µM
- C[C@H]1CCC(c2ccccc2)S(=O)(=O)N1Cc1ccc(OCc2cccnc2)cc1 (single isomer, unassigned) [Example 58] — 3.9-fold higher, 0.106 µM
- CC(Oc1ccc(CN2[C@@H](C)CCC(c3ccccc3)S2(=O)=O)cc1)c1ncccn1 (single isomer, unassigned) [Example 50] — 50-fold higher, 1.35 µM
- C[C@H]1CCC(c2ccccc2)S(=O)(=O)N1Cc1ccc(-c2ccc3nncn3c2)cc1F (stereo partly drawn) [Example 5, 6-[3-Fluoro-4-((3S)-3-methyl-1,1-dioxo-6-phenyl-[1,2]thiazinan-2-ylmethyl)-phenyl]-[1,2,4]triazolo[4,3-a]pyridine] — 17-fold higher, 0.454 µM
- C[C@H]1CCC(c2ccccc2)S(=O)(=O)N1Cc1ccc(C(=O)Nc2nc[nH]c2C#N)cc1 (single isomer, unassigned) [Example 10] — 110-fold higher, 2.9 µM
- C[C@H]1CCC(c2ccccc2)S(=O)(=O)N1Cc1ccc(-c2ccc(C(=O)N(C)C)cc2)cc1F (single isomer, unassigned) [Example 30] — 5.9-fold higher, 0.16 µM
- C[C@H]1CCC(c2ccccc2)S(=O)(=O)N1Cc1ccc(-c2ccncc2)cc1F (stereo partly drawn) [Example 34, (3S)-2-(2-Fluoro-4-pyridin-4-yl-benzyl)-3-methyl-6-phenyl-[1,2]thiazinane 1,1-dioxide] — 17-fold higher, 0.463 µM
- C[C@H]1CCC(c2ccccc2)S(=O)(=O)N1Cc1ccc(-c2cnc(S(C)(=O)=O)nc2)cc1F (stereo partly drawn) [Example 40, (3S)-2-[2-Fluoro-4-(2-mcthanesulfonyl-pyrimidin-5-yl)-benzyl]-3-methyl-6-phenyl-[1,2]thiazinane 1,1-dioxide] — 37-fold higher, 0.989 µM
- Cc1oncc1COc1ccc(CN2[C@@H](C)CCC(c3ccccc3)S2(=O)=O)cc1 (stereo partly drawn) [Example 53, (3S)-3-Methyl-2-[4-(5-methyl-isoxazol-4-ylmethoxy)-benzyl]-6-phenyl-[1,2]thiazinane 1,1-dioxide] — 7.7-fold higher, 0.208 µM
- C[C@H]1CCC(c2ccccc2)S(=O)(=O)N1Cc1ccc(-c2cnn(C)c2)cc1F (stereo partly drawn) [Example 29, (3S)-2-[2-Fluoro-4-(1-methyl-1H-pyrazol-4-yl)-benzyl]-3-methyl-6-phenyl-[1,2]thiazinane 1,1-dioxide] — 27-fold higher, 0.727 µM
- Cc1noc(C)c1COc1ccc(CN2[C@@H](C)CCC(c3ccccc3)S2(=O)=O)cc1 (stereo partly drawn) [Example 60, (3S)-2-[4-(3,5-Dimethyl-isoxazol-4-ylmethoxy)-benzyl]-3-methyl-6-phenyl-[1,2]thiazinane 1,1-dioxide] — 5.6-fold higher, 0.151 µM
- C[C@H]1CCC(c2ccccc2)S(=O)(=O)N1Cc1ccc(C(=O)Nc2ncnn2C)cc1 (single isomer, unassigned) [Example 21] — 120-fold higher, 3.28 µM
- C[C@H]1CCC(c2ccccc2)S(=O)(=O)N1Cc1ccc(-c2cnc(NS(C)(=O)=O)nc2)cc1F (single isomer, unassigned) [Example 43] — 10-fold higher, 0.275 µM
- CC(=O)Nc1ccc(-c2ccc(CN3[C@@H](C)CCC(c4ccccc4)S3(=O)=O)c(F)c2)cn1 (stereo partly drawn) [Example 26, N-{5-[3-Fluoro-4-((3S)-3-methyl-1,1-dioxo-6-phenyl-[1,2]thiazinan-2-ylmethyl)-phcnyl]-pyridin-2-yl}-acetamide] — 71-fold higher, 1.91 µM
- C[C@H]1CCC(c2ccccc2)S(=O)(=O)N1Cc1ccc(OCc2cncn2C)cc1 (stereo partly drawn) [Example 49, (3S)-3-Methyl-2-[4-(3-methyl-3H-imidazol-4-ylmethoxy)-benzyl]-6-phenyl-[1,2]thiazinane 1,1-dioxide] — 11-fold higher, 0.295 µM
- C[C@H]1CCC(c2ccccc2)S(=O)(=O)N1Cc1ccc(C(=O)N(C)c2ncco2)cc1 (stereo partly drawn) [Example 16, N-Methyl-4-((3S)-3-methyl-1,1-dioxo-6-phenyl-[1,2]thiazinan-2-ylmethyl)-N-oxazol-2-yl-benzamide] — 180-fold higher, 4.84 µM
- C[C@H]1CCC(c2ccccc2)S(=O)(=O)N1Cc1ccc(-c2ccccc2)cc1F (stereo partly drawn) [Example 32, (3S)-2-(3-Fluoro-biphenyl-4-ylmethyl)-3-methyl-6-phenyl-[1,2]thiazinane 1,1-dioxide] — 6-fold higher, 0.161 µM
- C[C@H]1CCC(c2ccccc2)S(=O)(=O)N1Cc1ccc(-c2ccc(S(C)(=O)=O)cc2)cc1F (stereo partly drawn) [Example 31, (3S)-2-(3-Fluoro-4′-methanesulfonyl-biphenyl-4-ylmethyl)-3-methyl-6-phenyl-[1,2]thiazinane 1,1-dioxide] — within 1.5-fold, 0.028 µM
- Cc1cc(COc2ccc(CN3[C@@H](C)CCC(c4ccccc4)S3(=O)=O)cc2)n(C)n1 (stereo partly drawn) [Example 55, (3S)-2-[4-(2,5-Dimethyl-2H-pyrazol-3-ylmethoxy)-benzyl]-3-methyl-6-phenyl-[1,2]thiazinane 1,1-dioxide] — 14-fold higher, 0.387 µM
- Cc1cnc(COc2ccc(CN3[C@@H](C)CCC(c4ccccc4)S3(=O)=O)cc2)nc1 (stereo partly drawn) [Example 51, (3S)-3-Methyl-2-[4-(5-methyl-pyrimidin-2-ylmethoxy)-benzyl]-6-phenyl-[1,2]thiazinane 1,1-dioxide] — 44-fold higher, 1.18 µM
- Cc1n[nH]c(C)c1-c1ccc(CN2[C@@H](C)CCC(c3ccccc3)S2(=O)=O)c(F)c1 (single isomer, unassigned) [Example 1] — 20-fold higher, 0.527 µM
- Cc1noc(C)c1-c1ccc(CN2[C@@H](C)CCC(c3ccccc3)S2(=O)=O)c(F)c1 (stereo partly drawn) [Example 35, (3S)-2-[4-(3,5-Dimethyl-isoxazol-4-yl)-2-fluoro-benzyl]-3-methyl-6-phenyl-[1,2]thiazinane 1,1-dioxide] — 20-fold higher, 0.534 µM
- C[C@H]1CCC(c2ccccc2)S(=O)(=O)N1Cc1ccc(C(=O)NCc2noc(C(N)=O)n2)cc1 (stereo partly drawn) [Example 14, 3-{[4-((3S)-3-Methyl-1,1-dioxo-6-phenyl-[1,2]thiazinan-2-ylmethyl)-benzoylamino]-methyl}-[1,2,4]oxadiazole-5-carboxylic acid amide] — 51-fold higher, 1.39 µM
- C[C@H]1CCC(c2ccccc2)S(=O)(=O)N1Cc1ccc(-c2ccc(S(C)(=O)=O)cn2)cc1F (stereo partly drawn) [Example 38, (3S)-2-[2-Fluoro-4-(5-methanesulfonyl-pyridin-2-yl)-benzyl]-3-methyl-6-phenyl-[1,2]thiazinane 1,1-dioxide] — 3.2-fold higher, 0.087 µM
- C[C@H]1CCC(c2ccccc2)S(=O)(=O)N1Cc1ccc(-c2ccc(C(N)=O)cc2)cc1F (stereo partly drawn) [Example 28, 3′-Fluoro-4′-((3S)-3-methyl-1,1-dioxo-6-phenyl-[1,2]thiazinan-2-ylmethyl)-biphenyl-4-carboxylic acid amide] — within 1.5-fold, 0.037 µM
- C[C@H]1CCC(c2ccccc2)S(=O)(=O)N1Cc1ccc(C(=O)NCc2cn[nH]c2)cc1 (single isomer, unassigned) [Example 7] — 19-fold higher, 0.502 µM
- C[C@H]1CCC(c2ccccc2)S(=O)(=O)N1Cc1ccc(-c2ccc(S(N)(=O)=O)cc2)cc1F (single isomer, unassigned) [Example 22] — 3.2-fold higher, 0.087 µM
- C[C@H]1CCC(c2ccccc2)S(=O)(=O)N1Cc1ccc(C(=O)NCCn2ccnc2)cc1 (stereo partly drawn) [Example 6, N-(2-Imidazol-1-yl-ethyl)-4-((3S)-3-methyl-1,1-dioxo-6-phenyl-[1,2]thiazinan-2-ylmethyl)-benzamide] — 150-fold higher, 3.92 µM
